Measurements taken from patent publication US20240254435A1, “VARIANT BACTERIAL STRAINS AND PROCESSES FOR PROTEIN OR BIOMASS PRODUCTION” (Solar Foods Oy, priority 2021, published 2024).

Assays:
[1] = Antibiotic susceptibility (MIC), broth microdilution / agar dilution, CLSI M07; settings: for Minimum Inhibitory Concentration (MIC): VTT-E-193585, 48 h ± 1 h, aerobic, +35±2° C., cation-adjusted Mueller Hinton Broth, fosfomycin by agar dilution; for MIC values for VTT-E-193585 compared to E. coli ATCC 25922: comparison in words
[2] = Antibiotic susceptibility (MIC), quality control strain; settings: E. coli ATCC 25922, 18 h ± 2 h, aerobic, +35±2° C.

| Compound | Minimum Inhibitory Concentration (MIC) [1] | MIC values for VTT-E-193585 compared to E. coli ATCC 25922 [1] | Minimum Inhibitory Concentration (MIC) [2] |
| --- | --- | --- | --- |
| Colistin | 4 µg/mL | higher | 2 µg/mL |
| [H]/N=C(/N)N[C@H]1[C@H](O)[C@@H](O)[C@H](O[C@@H]2O[C@@H](C)[C@](O)(C=O)[C@H]2O[C@@H]2O[C@@H](CO)[C@H](O)[C@@H](O)[C@@H]2NC)[C@@H](N/C(N)=N\[H])[C@@H]1O [Streptomycin] | 0.5 µg/mL | lower or comparable | 4 µg/mL |
| CC1(C)S[C@@H]2[C@H](NC(=O)[C@H](N)c3ccccc3)C(=O)N2[C@H]1C(=O)O [Ampicillin] | 16 µg/mL | higher | 8 µg/mL |
| Gentamicin | 0.5 µg/mL | lower or comparable | 0.5 µg/mL |
| C[C@@H]1O[C@@H]1P(=O)(O)O [Fosfomycin] | 32 µg/mL | higher | 0.5 µg/mL |
